Patent publication US10493125B2 (Merck Sharp & Dohme Corp., priority 2015, dated 2019)
Read-outs that look alike come from different tables or passages of the source. Starred links: 1 amine or outer side, 2 acyl side, 3 side chain; linkers in the order of their positions; H or OH if unused. Non-standard residues stand in square brackets, D forms with d. Residues, ends and D or L forms follow the SMILES beside them. Groups on a side chain read outwards from the residue. No end group written: not given here. *: point of attachment. γGlu = O=C(O)[C@H](CCC(=O)[*:2])N[*:1]; Palmitoyl = CCCCCCCCCCCCCCCC(=O)*

Key:
human GCGR = biological target: T1, human GCGR (Homo sapiens, UniProt P47871); experiment: cAMP activity assay (HitHunter cAMP XS), cells expressing human GCGR; assay type: cell-based; settings: for Ratio: EC50 hGCGR divided by EC50 hGLP1; for EC50: read-out: EC50 hGCGR
T1 construct: expressed in transfected cells
Method: (§1) Peptides were dissolved in 100% DMSO and serially diluted to generate 10 point titrations. The peptide solutions were then transferred into 384-well assay plates (150 nL/well). Assay ready frozen cells expressing human GLP1R or human GCGR were suspended in growth media consisting of DMEM medium (GIBCO), 10% FBS (GIBCO), 1×NEAA(GIBCO), 1× P/S (GIBCO), 10 ug/ml Blasticidin (GIBCO) and 200 μg/mL Hygromycin (GIBCO). […] The cell suspensions (15 μL) were then added to the assay plates containing the peptide solutions (30,000 cells/well for human GCGR; 10,000 cells/well for human GLP1R). The cells were incubated for 1 hour at room temperature in the dark. Production of cAMP was determined using HitHunter™ cAMPXS kits (DiscoverX) following manufacturer protocol. The plates were incubated for overnight at room temperature in the dark. Luminescence was measured using an EnVision Multilabel plate reader (Perkin Elmer). […] EC50 values were calculated using uses a 4 parameter logistic fit based on the Levenberg-Marquardt algorithm.

human GLP1R = biological target: T2, human GLP1R (Homo sapiens, UniProt P43220); experiment: cAMP activity assay (HitHunter cAMP XS), cells expressing human GLP1R; assay type: cell-based
T2 construct: expressed in transfected cells
Method: as §1

[1] = Table 7, lipidated analogs vs parental peptides
[2] = Table 7, lipidated analogs vs parental peptides, read-out: EC50 hGLP1
[3] = Table 2, cAMP production, read-out: EC50 hGLP1R

T2 sequence (P43220 24-463): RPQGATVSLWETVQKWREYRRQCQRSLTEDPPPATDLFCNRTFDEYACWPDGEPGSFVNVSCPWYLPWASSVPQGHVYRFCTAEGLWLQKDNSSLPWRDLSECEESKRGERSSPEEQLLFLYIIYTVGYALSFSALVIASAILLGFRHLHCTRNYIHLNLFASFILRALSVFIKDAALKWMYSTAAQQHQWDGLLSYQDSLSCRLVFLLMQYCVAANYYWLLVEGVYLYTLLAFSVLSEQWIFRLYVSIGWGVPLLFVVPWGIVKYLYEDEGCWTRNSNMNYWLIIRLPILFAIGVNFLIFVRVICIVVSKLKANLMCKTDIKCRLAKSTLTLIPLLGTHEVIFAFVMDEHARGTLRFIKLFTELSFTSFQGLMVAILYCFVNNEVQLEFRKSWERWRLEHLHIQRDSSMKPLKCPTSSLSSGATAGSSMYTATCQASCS
T1 sequence (P47871 26-477): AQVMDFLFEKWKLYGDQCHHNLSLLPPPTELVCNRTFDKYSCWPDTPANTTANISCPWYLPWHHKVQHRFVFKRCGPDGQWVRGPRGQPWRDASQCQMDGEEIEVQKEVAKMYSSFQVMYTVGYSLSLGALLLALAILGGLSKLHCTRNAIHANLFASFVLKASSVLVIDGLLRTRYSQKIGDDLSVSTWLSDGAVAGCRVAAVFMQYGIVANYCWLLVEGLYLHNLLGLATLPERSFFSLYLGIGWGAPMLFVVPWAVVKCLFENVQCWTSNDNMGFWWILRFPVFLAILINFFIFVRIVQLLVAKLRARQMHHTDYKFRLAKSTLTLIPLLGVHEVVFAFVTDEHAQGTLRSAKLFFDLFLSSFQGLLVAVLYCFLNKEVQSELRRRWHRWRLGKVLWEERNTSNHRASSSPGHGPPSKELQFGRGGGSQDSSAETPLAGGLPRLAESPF

| Molecule | Ratio (human GCGR; Table 7) | EC50 (human GCGR; [1]) | EC50 (human GLP1R; [2]) | EC50 (human GCGR; Table 2, cAMP production) | EC50 (human GLP1R; [3]) |
| --- | --- | --- | --- | --- | --- |
| CCCCCCCCCCCCCCCC(=O)N[C@@H](CCC(=O)N[C@@H](CCC(=O)NCCCC[C@H](NC(=O)[C@H](CC(=O)O)NC(=O)[C@H](CO)NC(=O)[C@@H](NC(=O)[C@H](Cc1ccccc1)NC(=O)[C@@H](NC(=O)CNC(=O)[C@H](CCC(N)=O)NC(=O)[C@@H](CO)NC(=O)[C@@H](N)Cc1c[nH]cn1)[C@@H](C)O)[C@@H](C)O)C(=O)N[C@@H](CO)C(=O)N[C@@H](CCCCN)C(=O)N[C@@H](Cc1ccc(O)cc1)C(=O)N[C@@H](CC(C)C)C(=O)N[C@@H](CC(=O)O)C(=O)N[C@@H](CO)C(=O)N[C@@H](CCCNC(=N)N)C(=O)N[C@@H](CCCNC(=N)N)C(=O)N[C@@H](C)C(=O)N[C@@H](Cc1c[nH]cn1)C(=O)N[C@@H](CC(=O)O)C(=O)N[C@@H](Cc1ccccc1)C(=O)N[C@H](C(=O)N[C@@H](CCC(N)=O)C(=O)N[C@@H](Cc1c[nH]c2ccccc12)C(=O)N[C@@H](CC(C)C)C(=O)N[C@@H](CC(C)C)C(=O)N[C@@H](CC(N)=O)C(=O)N[C@H](C(N)=O)[C@@H](C)O)C(C)C)C(=O)O)C(=O)O [TP535] (H-H[dS]QGTFTSDK([γGlu-γGlu-Palmitoyl])SKYLDSRRAHDFVQWLLNT-NH2; N-terminus assumed) | 0.4 | 0.02 nM | 0.05 nM |  |  |
| HSQGTFTSDYSKYLDNKRAQDFVQWLMQT-NH2 [PD37] | 3.2 | 0.16 nM | 0.05 nM |  |  |
| CC[C@H](C)[C@H](NC(=O)[C@H](CC(C)C)NC(=O)[C@H](Cc1c[nH]c2ccccc12)NC(=O)[C@H](CC(=O)O)NC(=O)[C@@H](NC(=O)[C@H](Cc1ccccc1)NC(=O)[C@H](CC(=O)O)NC(=O)[C@H](CCC(N)=O)NC(=O)[C@H](C)NC(=O)[C@H](CCCNC(=N)N)NC(=O)[C@H](CCCNC(=N)N)NC(=O)[C@H](CO)NC(=O)[C@H](CC(=O)O)NC(=O)[C@H](CC(C)C)NC(=O)[C@H](Cc1ccc(O)cc1)NC(=O)[C@H](CCCCN)NC(=O)[C@H](CO)NC(=O)[C@H](Cc1ccc(O)cc1)NC(=O)[C@H](CC(=O)O)NC(=O)[C@H](CO)NC(=O)[C@@H](NC(=O)[C@H](Cc1ccccc1)NC(=O)[C@@H](NC(=O)CNC(=O)[C@H](CCC(N)=O)NC(=O)[C@H](CO)NC(=O)[C@@H](N)Cc1c[nH]cn1)[C@@H](C)O)[C@@H](C)O)C(C)C)C(=O)N[C@@H](CC(N)=O)C(=O)N[C@@H](CO)C(N)=O [PD50] |  |  |  | 0.02 nM | 0.01 nM |
| CSCC[C@H](NC(=O)[C@H](CC(C)C)NC(=O)[C@H](Cc1c[nH]c2ccccc12)NC(=O)[C@H](CCC(N)=O)NC(=O)[C@@H](NC(=O)[C@H](Cc1ccccc1)NC(=O)[C@H](CC(=O)O)NC(=O)[C@H](CCC(N)=O)NC(=O)[C@H](C)NC(=O)[C@H](CCCNC(=N)N)NC(=O)[C@H](CCCNC(=N)N)NC(=O)[C@H](CO)NC(=O)[C@H](CC(=O)O)NC(=O)[C@H](CC(C)C)NC(=O)[C@H](Cc1c[nH]c2ccccc12)NC(=O)[C@H](Cc1c[nH]cn1)NC(=O)[C@H](CO)NC(=O)[C@H](Cc1ccc(O)cc1)NC(=O)[C@H](CC(=O)O)NC(=O)[C@H](CO)NC(=O)[C@H](Cc1ccccc1)NC(=O)[C@H](Cc1ccccc1)NC(=O)[C@@H](NC(=O)CNC(=O)[C@H](CCC(N)=O)NC(=O)[C@H](CO)NC(=O)[C@@H](N)Cc1c[nH]cn1)[C@@H](C)O)C(C)C)C(=O)N[C@@H](CC(N)=O)C(=O)N[C@H](C(N)=O)[C@@H](C)O [PD43] |  |  |  | 0.03 nM | 0.04 nM |
